Read-outs that look alike come from different tables or passages of the source. Marks after values point to notes of the source that are not given here.
Legend:
[1] = system: serum IgE and ovalbumin-specific IgE; assay: Serum IgE and ovalbumin-specific IgE (ELISA), ovalbumin-induced asthma model; assay type: in vivo, mouse
Procedure: (§1) 6-week-old female SPF (specific pathogen-free) Balb/c mice (average weight: 20 g) were purchased from Samtako (Korea). The animals were sufficiently fed with solid feed (antibiotic-free, Samyang Feed Co.) and water until the start point of the experiment, and acclimated at a temperature of 22±2° C., a humidity of 55±15%, and a 12-hr light/12-hr dark cycle for 1 week, and then used in experiments. After 1 week of the acclimation period as described above, the mice were sensitized by intraperitoneal administration of a suspension of 2 mg of aluminum oxide (A8222, Sigma-Aldrich, MO, USA) and 20 μg of ovalbumin (A5503, Sigma-Aldrich) in 200 μl of phosphate buffered saline at two-week intervals. During a period from day 21 to day 23 after the first intraperitoneal administration of ovalbumin, 1% ovalbumin was inhaled into the mice for 30 minutes using an ultrasonic nebulizer (NE-U12, Omron Corp., Japan). At 24 hours after the last ovalbumin challenge, the airway hyperresponsiveness of the mice was measured, and after 48 hours, the mice were anesthetized by intraperitoneal administration of Pentobarbital (50 mg/kg, Entobal, Hanil, Korea). Then, blood was collected through the saphenous vein, and the mice were subjected to tracheostomy. Next, each of the mice was subjected to bronchoalveolar lavage with a total of 1.4 ml of PBS to collect an analytical sample. […] The drug and the sample were administered orally during a period from day 18 to day 23 after the first ovalbumin […] (FIG. 1). Seven mice were used per group.
The blood collected through the saphenous vein was incubated at room temperature for 30 minutes, and then centrifuged (3000 rpm, 15 min) to obtain serum. For measurement of serum IgE and ovalbumin-specific IgE, ELISA was used. IgE was measured using commercially available IgE (Biolegend Ins., USA). For measurement of ovalbumin-specific IgE, in a 96-well flat bottom ELISA plate, ovalbumin was dissolved in 0.1 M NaHCO3 buffer (pH 8.3) at a concentration of 20 μg/mL and incubated at 4° C. for 16 hours. Next, PBS containing 1% bovine serum albumin (BSA) was added to suppress nonspecific reactions. The serum sample was diluted at 1:400, allowed to react at room temperature for 2 hours, and then washed with PBS containing 0.05% Tween 20. Horseradish peroxidase (HRP)-conjugated goat […] polyclonal A was diluted 4000-fold and allowed to react at room temperature for 1 hour, and then color development was performed using 3,3′5,5′-tetramethylbenzidine substrate.

[2] = system: ovalbumin-induced asthma Balb/c mice; assay: Histopathological examination of lung tissue (H&E, PAS staining), ovalbumin-induced asthma model; assay type: in vivo, mouse
[3] = system: sepsis animal model; conditions: cecal-ligation-puncture sepsis model; cited from earlier work
[4] = system: EL-4 cells; conditions: mouse, 24 h
Procedure: EL-4 cells that are mouse T lymphoma cells were suspended in 10% fetal bovine serum-containing RPMI medium (Gibco) at a concentration of 5×10^4 cells/ml, and 100 μl of the cell suspension was seeded into each well of a 96-well plate and cultured for 12 hours. Next, the cell culture was treated with monoacetyldiacylglycerol (MADG) compounds at the concentrations shown in Table 1 below, and was then additionally cultured for 24 hours. Next, according to the instruction provided in a CCK-8 kit (Dojindo) capable of counting cells, 10 μl of CCK-8 solution was added to the kit and allowed to react for 30 minutes to 4 hours, and then the absorbance (OD) at 570 nm was measured. In equation 1, the negative control group indicates a cell culture treated with 0.2% DMSO. […] Cell viability (%)=[(OD 570 nm value of MADC-treated group)/(OD 570 nm value of negative control group)]×100 Equation 1

[5] = system: ovalbumin-induced asthma Balb/c mice; assay: Inflammatory cell count in bronchoalveolar lavage fluid, ovalbumin-induced asthma model; assay type: in vivo, mouse; conditions: BALF
Procedure: as §1
An increase in the number of eosinophils is one of the major features of asthma. Thus, in order to measure the number of eosinophils, the following experiment was performed. The bronchoalveolar lavage fluid from each mouse was stained with trypan blue immediately after collection, and the number of total cells (excluding dead cells) was calculated using a hemocytometer.

[6] = system: ovalbumin-induced asthma Balb/c mice; assay: Airway hyperresponsiveness (Pehn, plethysmography) in ovalbumin-induced asthma model; assay type: in vivo, mouse
Procedure: as §1
To measure airway hyperresponsiveness that is one of the major features of asthma, one chamber plethysmography (All Medicus, Korea) was used. The degree of airway resistance was evaluated by measuring enhanced pause (Pehn). For measurement of Pehn, the basis value was measured in a normal breathing state, and then PBS was inhaled for 3 minutes using an ultrasonic nebulizer, after which the Pehn value was measured for 3 minutes.

[7] = system: interleukins (IL-4, IL-5 and IL-13); assay: Th2 cytokines in bronchoalveolar lavage fluid (ELISA), ovalbumin-induced asthma model; assay type: in vivo, mouse; conditions: BALF
Procedure: as §1
The production of interleukins (IL-4, IL-5 and IL-13) in the bronchoalveolar lavage fluid isolated from each mouse was measured using a commercially available enzyme-linked immunosorbent assay (ELISA) kit (R&D System, USA). The analysis of each cytokine was performed according to the manufacturer's instruction, and the absorbance at 450 nm was measured using an ELISA reader (Molecular Devices, USA).

## CCCCC/C=C\C/C=C\CCCCCCCC(=O)OC(COC(C)=O)COC(=O)CCCCCCCCCCCCCCC (stereo not drawn) [EC-18, 1-palmitoyl-2-linoleoyl-3-acetylglycerol]
[1]
  ovalbumin-specific IgE compared to asthma-induced group: significantly decreased
  serum IgE compared to asthma-induced group: significantly decreased
[1]; 30 mg/kg oral
  IgE: 2.35 ± 0.38 µg/mL
  OVA specific IgE: 295.36 ± 77.93 µg/mL
[1]; 60 mg/kg oral
  IgE: 2.27 ± 0.46 µg/mL
  OVA specific IgE: 287.79 ± 69.53 µg/mL
[2]; H&E staining
  infiltration of inflammatory cells around the bronchi and blood vessels: decrease
[2]; PAS staining
  mucus secretion from goblet cells of the bronchial epithelium: significantly decreased
[3]
  survivability ratio of animals: Increases
[4]; 5 μg/ml
  EL-4 cell viability (%, mean ± SD): 101.94 ± 1.47%
[4]; 10 μg/ml
  EL-4 cell viability (%, mean ± SD): 97.54 ± 8.05%
[4]; 20 μg/ml
  EL-4 cell viability (%, mean ± SD): 91.82 ± 3.48%
[4]; 50 μg/ml
  EL-4 cell viability (%, mean ± SD): 92.67 ± 3.43%
[4]; 100 μg/ml
  EL-4 cell viability (%, mean ± SD): 95.29 ± 2.89%
[4]; 200 μg/ml
  EL-4 cell viability (%, mean ± SD): 99.74 ± 6.14%
[5]; 30 mg/kg oral
  Inflammatory cell number, Eosinophils: 93 ± 16.4* 10^5 per mouse
  Inflammatory cell number, Lymphocytes: 16 ± 8.7 10^5 per mouse
  Inflammatory cell number, Macrophages: 82 ± 25.5* 10^5 per mouse
  Inflammatory cell number, Neutrophils: 15 ± 8.4 10^5 per mouse
  Inflammatory cell number, Total cells: 221 ± 33.5* 10^5 per mouse
[5]; 60 mg/kg oral
  Inflammatory cell number, Eosinophils: 112 ± 18.7* 10^5 per mouse
  Inflammatory cell number, Lymphocytes: 13 ± 8.7 10^5 per mouse
  Inflammatory cell number, Macrophages: 113 ± 27.4 10^5 per mouse
  Inflammatory cell number, Neutrophils: 12 ± 6.7 10^5 per mouse
  Inflammatory cell number, Total cells: 253 ± 12.8* 10^5 per mouse
[5]; groups administered with EC-18
  number of eosinophils compared to asthma-induced group: decrease
  number of total inflammatory cells compared to asthma-induced group: significant decrease
[6]; methacholine 0 mg/mL, 30 mg/kg oral
  Pehn value: 0.465 ± 0.08
[6]; methacholine 0 mg/mL, 60 mg/kg oral
  Pehn value: 0.436 ± 0.08
[6]; methacholine 12.5 mg/mL, 30 mg/kg oral
  Pehn value: 1.179 ± 0.49
[6]; methacholine 12.5 mg/mL, 60 mg/kg oral
  Pehn value: 0.778 ± 0.15
[6]; methacholine 25 mg/mL, 30 mg/kg oral
  Pehn value: 2.914 ± 0.67
[6]; methacholine 25 mg/mL, 60 mg/kg oral
  Pehn value: 2.436 ± 0.68
[6]; methacholine 50 mg/mL, 30 mg/kg oral
  Pehn value: 4.098 ± 0.78
[6]; methacholine 50 mg/mL, 60 mg/kg oral
  Pehn value: 3.887 ± 0.59
[6]; montelukast 30 mg/kg, EC-18 30 mg/kg and 60 mg/kg
  airway hyperresponsiveness / Pehn value compared to asthma-induced group: significantly decreased
[7]
  secretion of IL-4 compared to asthma-induced group: significantly decreased
  secretion of IL-5 compared to asthma-induced group: significantly decreased
  secretion of IL-13 compared to asthma-induced group: significantly decreased
[7]; 30 mg/kg oral
  Th2 cytokines, IL-4: 17.89 ± 3.46 pg/mL
  Th2 cytokines, IL-5: 24.12 ± 3.07 pg/mL
  Th2 cytokines, IL-13: 97.27 ± 12.80 pg/mL
[7]; 60 mg/kg oral
  Th2 cytokines, IL-4: 17.09 ± 3.08 pg/mL
  Th2 cytokines, IL-5: 25.02 ± 2.91 pg/mL
  Th2 cytokines, IL-13: 81.10 ± 20.46 pg/mL

Source: US11135193B2, “Composition containing monoacetyldiacylglycerol compound as active ingredient for preventing or treating asthma” (Enzychem Lifesciences Corporation, priority 2013, dated 2021)
